From ChEMBL document CHEMBL1909046, “DrugMatrix in vitro pharmacology data” come the findings set out here.

Assay [1] addresses T1, C-X-C chemokine receptor type 2 (Homo sapiens, UniProt P25025).
T1 sequence (P25025 whole entry): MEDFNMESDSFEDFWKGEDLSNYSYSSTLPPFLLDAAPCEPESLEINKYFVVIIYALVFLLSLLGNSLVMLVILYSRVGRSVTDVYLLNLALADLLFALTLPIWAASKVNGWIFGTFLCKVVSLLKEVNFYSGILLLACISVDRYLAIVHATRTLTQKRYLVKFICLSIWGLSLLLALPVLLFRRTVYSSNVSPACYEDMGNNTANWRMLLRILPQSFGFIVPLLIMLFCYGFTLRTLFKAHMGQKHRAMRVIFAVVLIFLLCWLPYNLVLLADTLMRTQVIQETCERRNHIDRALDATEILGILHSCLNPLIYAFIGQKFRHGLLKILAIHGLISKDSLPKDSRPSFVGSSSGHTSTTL
It counts as cell membranes, Membrane. The note with it: cho-k1.

The target of assay [2] is 5-hydroxytryptamine receptor 1B (Rattus norvegicus, UniProt P28564). It counts as cell membranes, Wistar, Cerebral cortex, Membrane. The conditions noted are these: for Ki: read-out: Ki. On all read-outs here: in other assays of this panel Not Active means under 50% inhibition at 10 µM.
Chain of 5-hydroxytryptamine receptor 1B (P28564 whole entry): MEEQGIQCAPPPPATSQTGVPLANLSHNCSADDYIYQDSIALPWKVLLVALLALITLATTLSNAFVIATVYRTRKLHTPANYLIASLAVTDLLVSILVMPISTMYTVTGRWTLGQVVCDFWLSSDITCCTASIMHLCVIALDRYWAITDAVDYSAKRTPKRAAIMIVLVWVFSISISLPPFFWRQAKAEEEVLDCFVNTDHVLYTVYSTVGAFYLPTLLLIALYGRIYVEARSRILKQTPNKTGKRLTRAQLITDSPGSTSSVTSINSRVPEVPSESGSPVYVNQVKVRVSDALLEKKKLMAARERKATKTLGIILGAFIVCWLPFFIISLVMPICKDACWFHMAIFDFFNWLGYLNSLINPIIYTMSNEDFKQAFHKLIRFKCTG
In assay [3] the target is T2, Type-2 angiotensin II receptor (Homo sapiens, UniProt P50052). Further: in other assays of this panel Not Active means under 50% inhibition at 10 µM.
T2 sequence (P50052 whole entry): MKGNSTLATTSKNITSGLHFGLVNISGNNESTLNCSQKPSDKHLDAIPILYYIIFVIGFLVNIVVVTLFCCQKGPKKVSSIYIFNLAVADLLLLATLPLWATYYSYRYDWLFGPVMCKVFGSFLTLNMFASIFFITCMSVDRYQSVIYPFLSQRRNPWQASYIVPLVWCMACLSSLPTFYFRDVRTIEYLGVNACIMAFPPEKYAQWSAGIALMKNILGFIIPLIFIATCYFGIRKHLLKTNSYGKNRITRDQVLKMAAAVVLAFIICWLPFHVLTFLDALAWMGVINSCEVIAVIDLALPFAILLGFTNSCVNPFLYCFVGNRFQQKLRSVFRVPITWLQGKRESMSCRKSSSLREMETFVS
It counts as cell-based. The conditions noted are these: cho-k1.

The target of another assay is T3, Thromboxane-A synthase (Homo sapiens, UniProt P24557).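 Further: enzyme inhibition assay with PGH2 supplied as substrate; in other assays of this panel Not Active means under 50% inhibition at 10 µM.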
T3 sequence (P24557 whole entry): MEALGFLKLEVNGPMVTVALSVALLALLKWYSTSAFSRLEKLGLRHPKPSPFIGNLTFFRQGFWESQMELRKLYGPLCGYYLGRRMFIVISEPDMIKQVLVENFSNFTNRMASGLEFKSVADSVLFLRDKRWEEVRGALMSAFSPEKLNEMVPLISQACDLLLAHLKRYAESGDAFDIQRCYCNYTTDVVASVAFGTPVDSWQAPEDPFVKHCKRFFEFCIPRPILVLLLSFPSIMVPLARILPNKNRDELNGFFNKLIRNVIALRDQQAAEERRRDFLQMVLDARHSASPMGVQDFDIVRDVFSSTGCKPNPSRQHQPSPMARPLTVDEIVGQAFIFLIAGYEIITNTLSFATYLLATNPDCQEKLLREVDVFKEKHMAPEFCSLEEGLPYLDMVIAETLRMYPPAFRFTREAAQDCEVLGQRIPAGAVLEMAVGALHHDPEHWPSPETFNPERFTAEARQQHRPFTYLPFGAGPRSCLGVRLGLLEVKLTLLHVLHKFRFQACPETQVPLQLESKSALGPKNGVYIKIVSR
Nature of the assay: biochemical. It counts as tissue-based, Platelet.

The target in assay [4] is Beta-1 adrenergic receptor (Homo sapiens, UniProt P08588). Nature of the assay: DRUGMATRIX: Adrenergic beta1 radioligand binding (ligand: [125I] Cyanopindolol). It counts as cell membranes, CHO-K1, Membrane. The conditions noted are these: Not Active = under 50% inhibition at 10 µM.
Chain of Beta-1 adrenergic receptor (P08588 whole entry): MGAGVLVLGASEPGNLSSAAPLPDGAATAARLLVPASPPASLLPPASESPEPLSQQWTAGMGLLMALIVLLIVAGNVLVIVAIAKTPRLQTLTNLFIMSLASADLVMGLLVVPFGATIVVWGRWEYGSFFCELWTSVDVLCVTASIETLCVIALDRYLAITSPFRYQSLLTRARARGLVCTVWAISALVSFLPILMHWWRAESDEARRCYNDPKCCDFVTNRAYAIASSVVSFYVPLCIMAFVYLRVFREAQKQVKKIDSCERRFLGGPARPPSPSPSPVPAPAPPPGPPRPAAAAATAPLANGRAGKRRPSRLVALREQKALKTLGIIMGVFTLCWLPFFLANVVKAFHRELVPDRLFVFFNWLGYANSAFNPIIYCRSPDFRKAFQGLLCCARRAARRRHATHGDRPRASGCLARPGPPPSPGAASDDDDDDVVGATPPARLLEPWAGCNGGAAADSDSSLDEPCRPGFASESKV
The target of assay [5] is T4, C-X-C chemokine receptor type 1 (Homo sapiens, UniProt P25024). Further: in other assays of this panel Not Active means under 50% inhibition at 10 µM.
T4 sequence (P25024 whole entry): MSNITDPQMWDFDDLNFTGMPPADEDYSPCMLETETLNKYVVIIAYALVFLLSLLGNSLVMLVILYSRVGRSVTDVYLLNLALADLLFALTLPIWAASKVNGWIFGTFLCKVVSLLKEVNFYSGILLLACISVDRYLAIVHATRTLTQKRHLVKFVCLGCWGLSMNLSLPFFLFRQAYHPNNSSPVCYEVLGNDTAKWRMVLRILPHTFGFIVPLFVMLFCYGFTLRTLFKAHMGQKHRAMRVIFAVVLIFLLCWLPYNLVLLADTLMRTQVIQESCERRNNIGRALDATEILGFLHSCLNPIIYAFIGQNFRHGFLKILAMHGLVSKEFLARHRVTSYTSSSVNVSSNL

Molecules are shown by their SMILES.

As a reminder, the IC50 is the concentration that inhibits the measured activity by half. In the case of `Cc1c(C)c2c(c(C)c1O)CCC(C)(COc1ccc(CC3SC(=O)NC3=O)cc1)O2` (stereo not drawn) [TROGLITAZONE], the half-inhibitory concentration (IC50) result in assay [1] is “Not Active”; in assay [2], “Not Active”; in assay [3], “Not Active”; at Thromboxane-A synthase (read-out: IC50) it was 2.97 µM; in assay [4] (cho-k1) it was “Not Active”; in assay [5] it was “Not Active”.
Regarding `c1ccc([C@H]2CN3CCSC3=N2)cc1` [LEVAMISOLE], the IC50 result (in assay [1]; in assay [2]; in assay [3]; against Thromboxane-A synthase (platelet); in assay [4] (cho-k1); in assay [5]) was “Not Active” each time.
Consider `CC[C@]1(O)C[C@H]2CN(CCc3c([nH]c4ccccc34)[C@@](C(=O)OC)(c3cc4c(cc3OC)N(C=O)[C@H]3[C@@](O)(C(=O)OC)[C@H](OC(C)=O)[C@]5(CC)C=CCN6CC[C@]43[C@@H]65)C2)C1` [VINCRISTINE], for which the IC50 result (in assay [1]; in assay [2]; in assay [3]; against Thromboxane-A synthase (platelet); in assay [4] (cho-k1); in assay [5]) was “Not Active” in each case.
For `O=c1ncn2nc(Sc3ccc(F)cc3F)ccc2c1-c1c(Cl)cccc1Cl` [NEFLAMAPIMOD], the IC50 entry (in assay [1]; in assay [2]; in assay [3]; on Thromboxane-A synthase (platelet); in assay [4] (cho-k1); in assay [5]) was “Not Active” each time.
Take `NS(=O)(=O)c1cc2c(cc1Cl)NC(C(Cl)Cl)NS2(=O)=O` (stereo not drawn) [TRICHLORMETHIAZIDE]: the IC50 entry (in assay [1]; in assay [2]; in assay [3]; against Thromboxane-A synthase (platelet); in assay [4] (cho-k1); in assay [5]) was “Not Active” in each case.
`CCCOc1ccccc1-c1nc2nn[nH]c2c(=O)[nH]1` [ZAPRINAST]: the IC50 entry (in assay [1]; in assay [2]; in assay [3]; on Thromboxane-A synthase (platelet); in assay [4] (cho-k1); in assay [5]) was “Not Active” in each case.
For the compound `N#CC(C#N)=Cc1ccc(O)c(O)c1` [TYRPHOSTIN 23], the half-inhibitory concentration (IC50) result (in assay [1]; in assay [2]; in assay [3]; against Thromboxane-A synthase (platelet); in assay [4] (cho-k1); in assay [5]) was “Not Active” each time.
Consider `C=CCC1(C(C)CCC)C(=O)NC(=O)NC1=O` (stereo not drawn) [SECOBARBITAL], for which the IC50 entry (in assay [1]; in assay [2]; in assay [3]; on Thromboxane-A synthase (platelet); in assay [4] (cho-k1); in assay [5]) was “Not Active” each time.
Consider `OCCN(CCO)c1nc(N2CCCCC2)c2nc(N(CCO)CCO)nc(N3CCCCC3)c2n1` [DIPYRIDAMOLE], for which the IC50 entry (in assay [1]; in assay [2]; in assay [3]; against Thromboxane-A synthase (platelet); in assay [4] (cho-k1); in assay [5]) was “Not Active” each time.
In the case of `Nc1c2c(nc3ccccc13)CCCC2` [TACRINE], the IC50 result (in assay [1]; in assay [2]; in assay [3]; against Thromboxane-A synthase (platelet); in assay [4] (cho-k1); in assay [5]) was “Not Active” in each case.
On to `Cn1ccnc1S` [METHIMAZOLE], for which the IC50 result (in assay [1]; in assay [2]; in assay [3]; at Thromboxane-A synthase (platelet); in assay [4] (cho-k1); in assay [5]) was “Not Active” in each case.
On to `N[C@@H]1[C@H]2CN(c3nc4c(cc3F)c(=O)c(C(=O)O)cn4-c3ccc(F)cc3F)C[C@@H]12` [TROVAFLOXACIN], for which the IC50 entry was “Not Active” in assay [1]; “Not Active” in assay [2]; “Not Active” in assay [3]; 4.02 µM at Thromboxane-A synthase (read-out: IC50); “Not Active” in assay [4] (cho-k1); “Not Active” in assay [5].
Turning to `CC1(C)O[C@@H]2C[C@H]3[C@@H]4CCC5=CC(=O)C=C[C@]5(C)[C@@]4(F)[C@@H](O)C[C@]3(C)[C@]2(C(=O)CO)O1` [TRIAMCINOLONE ACETONIDE], the IC50 entry (in assay [1]; in assay [2]; in assay [3]; against Thromboxane-A synthase (platelet); in assay [4] (cho-k1); in assay [5]) was “Not Active” each time.
Take `NC[C@H]1CC[C@H](C(=O)O)CC1` [TRANEXAMIC ACID]: the IC50 result (in assay [1]; in assay [2]; in assay [3]; against Thromboxane-A synthase (platelet); in assay [4] (cho-k1); in assay [5]) was “Not Active” in each case.
As for `COc1c(C)c2c(c(O)c1C/C=C(\C)CCC(=O)O)C(=O)OC2` [MYCOPHENOLIC ACID], the 50% inhibitory concentration (IC50) entry (in assay [1]; in assay [2]; in assay [3]; at Thromboxane-A synthase (platelet); in assay [4] (cho-k1); in assay [5]) was “Not Active” throughout.
As usually defined, the Ki is a measure of affinity in units of concentration, obtained from inhibition or displacement. For the compound `CC/C(=C(\c1ccccc1)c1ccc(OCCN(C)C)cc1)c1ccccc1` [TAMOXIFEN], the IC50 result in assay [1] is “Not Active”; in assay [2], “Not Active”; in assay [3], “Not Active”; on Thromboxane-A synthase (read-out: IC50) it was 0.916 µM; in assay [4] (read-out: IC50) it was 17.3 µM; in assay [5], “Not Active”. Moreover, in assay [4] (read-out: Ki), the Ki was 9.98 µM.
`N[C@@H](Cc1ccc(N(CCCl)CCCl)cc1)C(=O)O`: the IC50 result (in assay [1]; in assay [2]; in assay [3]; against Thromboxane-A synthase (platelet); in assay [4] (cho-k1); in assay [5]) was “Not Active” in each case.
As to `CO[C@H]1/C=C/O[C@@]2(C)Oc3c(C)c(O)c4c(O)c(c(/C=N/N5CCN(C)CC5)c(O)c4c3C2=O)NC(=O)/C(C)=C\C=C\[C@H](C)[C@H](O)[C@@H](C)[C@@H](O)[C@@H](C)[C@H](OC(C)=O)[C@@H]1C` [RIFAMPIN], the IC50 result (in assay [1]; in assay [2]; in assay [3]; on Thromboxane-A synthase (platelet); in assay [4] (cho-k1); in assay [5]) was “Not Active” throughout.
With `O=NN(CCCl)C(=O)NC1CCCCC1` [LOMUSTINE], the 50% inhibitory concentration (IC50) entry (in assay [1]; in assay [2]; in assay [3]; against Thromboxane-A synthase (platelet); in assay [4] (cho-k1); in assay [5]) was “Not Active” throughout.
As to `CC[C@@H](CO)NC(=O)[C@@H]1C=C2c3cccc4[nH]cc(c34)C[C@H]2N(C)C1` [METHYLERGONOVINE], the IC50 entry is “Not Active” in assay [1]; 0.015 µM in assay [2] (read-out: IC50); “Not Active” in assay [3]; “Not Active” on Thromboxane-A synthase (platelet); “Not Active” in assay [5]. In addition, the inhibition constant Ki in assay [2] is 0.00926 µM.
As to `CC(C)N1CCN(c2ccc(OCC3COC(Cn4cncn4)(c4ccc(Cl)cc4Cl)O3)cc2)CC1` (stereo not drawn) [TERCONAZOLE], the half-maximal inhibitory concentration (IC50) result in assay [1] is “Not Active”; in assay [2] (read-out: IC50), 89.9 µM; in assay [3] it was “Not Active”; on Thromboxane-A synthase (platelet) it was “Not Active”; in assay [5], “Not Active”. Besides, the Ki in assay [2] was 40.9 µM.
For `CCCCc1oc2ccccc2c1C(=O)c1cc(I)c(OCCN(CC)CC)c(I)c1` [AMIODARONE], the concentration for half-maximal inhibition (IC50) entry in assay [1] is “Not Active”; in assay [2] (read-out: IC50) it was 86.2 µM; in assay [3], “Not Active”; against Thromboxane-A synthase (platelet) it was “Not Active”; in assay [5] it was “Not Active”. In addition, in assay [2], the Ki was found to be 39.2 µM.
